Data taken from ChEMBL document CHEMBL3045878, “Effect of Insect Hormone Related Compounds on the Growth of Insect Cells” (1997).

Assays:
Format in all cases: functional
[1] = Juvenile hormone mimic activity in Spodoptera frugiperda (fall armyworm) Sf21 cells assessed as cell number at 3.7 x 10 '-11 M after 5 days by trypan blue exclusion assay
[2] = Juvenile hormone mimic activity in Spodoptera frugiperda (fall armyworm) Sf21 cells assessed as cell number at 3.7 x 10 '-10 M after 5 days by trypan blue exclusion assay
[3] = Juvenile hormone mimic activity in Spodoptera frugiperda (fall armyworm) Sf21 cells assessed as cell number at 3.7 x 10 '-9 M after 5 days by trypan blue exclusion assay
[4] = Juvenile hormone mimic activity in Spodoptera frugiperda (fall armyworm) Sf21 cells assessed as cell number at 3.7 x 10 '-8 M after 5 days by trypan blue exclusion assay
[5] = Juvenile hormone mimic activity in Spodoptera frugiperda (fall armyworm) Sf21 cells assessed as cell number at 3.7 x 10 '-7 M after 5 days by trypan blue exclusion assay
[6] = Juvenile hormone mimic activity in Spodoptera frugiperda (fall armyworm) Sf21 cells assessed as cell number at 3.7 x 10 '-12 M after 5 days by trypan blue exclusion assay

**Q.** What does the source list for CC(C)=CCC/C(C)=C/c1cncn1Cc1ccccc1?
**A.** Activity [1]: 5.5%; Activity [2]: 5.5%; Activity [3]: 4.9%; Activity [4]: 4.2%; Activity [5]: 3.3%

**Q.** What does the source list for COC(C)(C)CCC[C@H](C)C/C=C/C(C)=C/C(=O)OC(C)C [METHOPRENE]?
**A.** Activity [6]: 6.4%; Activity [1]: 6.7%; Activity [2]: 6.9%; Activity [3]: 6.5%; Activity [4]: 6%; Activity [5]: 6%

**Q.** With CCc1ccc(C(=O)NN(C(=O)c2cc(C)cc(C)c2)C(C)(C)C)cc1 [TEBUFENOZIDE] as the compound, how does the Activity [1] read?
**A.** The Activity was 5.4%.

**Q.** What about the Activity [2] of the same compound?
**A.** The Activity was 5.6%.

**Q.** What about the Activity [3] of the same compound?
**A.** The Activity was 5.7%.

**Q.** What about the Activity [4] of the same compound?
**A.** Its Activity is 5.1%.

**Q.** What about the Activity [5] of the same compound?
**A.** Its Activity is 4.3%.
